As a reminder, the IC50 is the concentration that gives 50% inhibition. High values mean a need for much substance, low ones inhibition by little substance. What is called melting point is the temperature, or range, at which the solid turns liquid.

For one series, the target named is FGFR1 (Homo sapiens, UniProt P11362). Kind of series: ELISA kinase assay, FGFR1. Format: biochemical. Particulars: ELISA; average values from two separate experiments. Here is the method: Elisa kinase assay. The effects of the indicated compounds on the activities of receptor tyrosine kinases were determined using enzyme-linked immunosorbent assays (ELISAs) with purified recombinant proteins. Briefly, 20 μg/mL poly (Glu,Tyr)4:1 (Sigma, St Louis, MO, USA) was pre-coated in 96-well plates as a substrate. A 50 μL aliquot of 10 μmol/L ATP solution diluted in kinase reaction buffer (50 mmol/L HEPES [pH 7.4], 50 mmol/L MgCl2, 0.5 mmol/L MnCl2, 0.2 mmol/L Na3VO4, and 1 mmol/L DTT) was added to each well; 1 μL of different compounds with indicated concentration diluted in 1% DMSO (v/v) (Sigma, St Louis, MO, USA) were then added to each reaction well. DMSO (1%, v/v) was used as the negative control. The kinase reaction was initiated by the addition of purified tyrosine kinase proteins (FGFR1, FGFR2, FGFR3, FGFR4, ALK, Bcr-Abl, EPH-A2, Flt-1, RET, c-Src, IGF1R, c-Met, EGFR, ErbB2) diluted in 49 μL of kinase reaction buffer solution. After incubation for 60 min at 37 °C, the plate was washed three times with phosphate-buffered saline (PBS) containing 0.1% Tween 20 (T-PBS). Anti-phosphotyrosine (PY99) antibody (100 μL; 1:500, diluted in 5 mg/mL BSA T-PBS) was then added. After a 30 min incubation at 37 °C, the plate was washed three times, and 100 μL horseradish peroxidase-conjugated goat anti-mouse IgG (1:2000, diluted in 5 mg/mL BSA T-PBS) was added. The plate was then incubated at 37 °C for 30 min and washed 3 times. A 100 μL aliquot of a solution containing 0.03% H2O2 and 2 mg/mL o-phenylenediamine in 0.1 mol/l citrate buffer (pH 5.5) was added. The reaction was terminated by the addition of 50 μL of 2 mol/l H2SO4 as the colour changed, and the plate was analysed using a multi-well spectrophotometer (SpectraMAX 190, Molecular Devices, Sunnyvale, CA, USA) at 490 nm. The inhibition rate (%) was calculated using the following equation: [1-(A490/A490 control)] × 100%. The IC50 values were calculated from the inhibition curves in two separate experiments.
(In general: An ELISA detects its analyte on a solid surface through an enzyme-linked reagent.)

In another series the test system is SNU-16 cell. The series can be described thus: Cell proliferation assay (CCK-8 or MTT), SNU-16. Format: cell-based, Human. As to conditions: for IC50: SNU-16 is FGFR2-amplified cell type, 72 h. How it is done:
Human gastric cancer cell line SNU-16 was purchased from American Type Culture Collection (ATCC, Manssas, VA, USA). All the cell lines were routinely maintained in complete medium according to the suppliers’ recommendations.
Cells were seeded in 96-well tissue culture plates. On the day when seeding, the cells were exposed to various concentrations of compounds and further cultured for 72 h at 37 °C. Finally, cell proliferation was determined using Cell Counting Kit (CCK-8) or the thiazolyl blue tetrazolium bromide (MTT, from Sigma-Aldrich, St. Louis, MO, USA) assay. The IC50 values were calculated by concentration–response curve fitting using a SoftMax pro-based four-parameter method.

Where only a bound is given, the exact number is not on record here.

Sequence of FGFR1 (P11362 22-822): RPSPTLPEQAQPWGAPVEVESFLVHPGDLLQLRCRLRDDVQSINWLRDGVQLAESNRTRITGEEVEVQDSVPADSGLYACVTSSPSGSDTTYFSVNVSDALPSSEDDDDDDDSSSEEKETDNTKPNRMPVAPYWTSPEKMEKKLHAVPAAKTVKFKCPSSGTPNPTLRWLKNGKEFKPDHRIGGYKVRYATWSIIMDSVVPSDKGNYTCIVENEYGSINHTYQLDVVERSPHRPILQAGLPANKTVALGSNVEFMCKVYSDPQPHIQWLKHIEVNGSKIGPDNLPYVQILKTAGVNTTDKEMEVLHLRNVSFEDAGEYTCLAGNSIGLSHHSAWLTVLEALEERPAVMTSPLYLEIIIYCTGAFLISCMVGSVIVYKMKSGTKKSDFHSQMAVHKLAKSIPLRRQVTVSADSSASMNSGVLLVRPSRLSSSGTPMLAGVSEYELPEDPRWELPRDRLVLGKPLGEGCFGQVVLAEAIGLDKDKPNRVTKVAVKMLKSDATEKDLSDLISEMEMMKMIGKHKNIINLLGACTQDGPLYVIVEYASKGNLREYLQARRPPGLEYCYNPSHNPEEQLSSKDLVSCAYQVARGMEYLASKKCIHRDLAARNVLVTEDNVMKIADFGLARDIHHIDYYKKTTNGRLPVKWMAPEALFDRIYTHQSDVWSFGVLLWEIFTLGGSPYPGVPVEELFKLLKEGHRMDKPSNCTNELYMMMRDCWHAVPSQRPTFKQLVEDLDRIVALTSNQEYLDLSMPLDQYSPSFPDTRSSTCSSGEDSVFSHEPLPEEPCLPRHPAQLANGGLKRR

Consider `COc1cc(OC)cc(-c2ccc3c(NC(=O)c4ccc(N5C[C@@H](C)N[C@@H](C)C5)cc4)n[nH]c3c2)c1` [9a, N-(6–(3,5-dimethoxyphenyl)-1H-indazol-3-yl)-4-((3R,5S)-3,5-dimethylpiperazin-1-yl)benzamide], for which the IC50 was 30.6 nM against FGFR1 and 1200 nM in the series with SNU-16 cell (Homo sapiens, Table 1).

Regarding `COc1cccc(-c2ccc3c(NC(=O)c4ccc(N5C[C@@H](C)N[C@@H](C)C5)cc4)n[nH]c3c2)c1` [9b, 4-((3R,5S)-3,5-dimethylpiperazin-1-yl)-N-(6–(3-methoxyphenyl)-1H-indazol-3-yl)benzamide], the melting point fell in the range of 224.8 to 227.4 °C. The compound further returned an IC50 on FGFR1 of 20.7 nM. In the series with SNU-16 cell (Homo sapiens, Table 1), this compound displayed a half-inhibitory concentration (IC50) of 1050 nM.

In turn, `COc1cccc(-c2ccc3c(NC(=O)c4ccc(N5CCN(C)CC5)cc4)n[nH]c3c2)c1` [9c, N-(6–(3-methoxyphenyl)-1H-indazol-3-yl)-4–(4-methylpiperazin-1-yl)benzamide] showed a melting point of 224.8 to 227.4 °C. Moreover, inhibition against FGFR1 was half-maximal at 28.2 nM (IC50). This compound displayed an IC50 with SNU-16 cell (Homo sapiens, Table 1) of 843 nM.

As for `CCN1CCN(c2ccc(C(=O)Nc3n[nH]c4cc(-c5cccc(OC)c5)ccc34)cc2)CC1` [9d, 4–(4-ethylpiperazin-1-yl)-N-(6–(3-methoxyphenyl)-1H-indazol-3-yl)benzamide], the 50% inhibitory concentration (IC50) against FGFR1 came out at 15 nM; in the series on SNU-16 cell (Homo sapiens, Table 1) it was 786 nM.

In turn, `CCOc1cccc(-c2ccc3c(NC(=O)c4ccc(N5CCN(CC)CC5)cc4)n[nH]c3c2)c1` [9e, N-(6–(3-ethoxyphenyl)-1H-indazol-3-yl)-4–(4-ethylpiperazin-1-yl)benzamide] showed a melting point of 223.6 to 226 °C. Also, at FGFR1, it took 13.2 nM to reach half-maximal inhibition (IC50). In the series with SNU-16 cell (Homo sapiens, Table 2), this compound returned a half-maximal inhibitory concentration (IC50) of 1790 nM.

For `CCN1CCN(c2ccc(C(=O)Nc3n[nH]c4cc(-c5cccc(OC(C)C)c5)ccc34)cc2)CC1` [9f, 4–(4-ethylpiperazin-1-yl)-N-(6–(3-isopropoxyphenyl)-1H-indazol-3-yl)benzamide], the melting point fell in the range of 227.9 to 231.7 °C. Moreover, the midpoint of inhibition against FGFR1, the IC50, lay at 9.8 nM. In the series on SNU-16 cell (Homo sapiens, Table 2), this compound displayed an IC50 of 1500 nM.

Regarding `CCC(C)Oc1cccc(-c2ccc3c(NC(=O)c4ccc(N5CCN(CC)CC5)cc4)n[nH]c3c2)c1` (stereo not drawn) [9g, N-(6–(3-(sec-butoxy)phenyl)-1H-indazol-3-yl)-4–(4-ethylpiperazin-1-yl)benzamide], the IC50 against FGFR1 was above 1000 nM; in the series on SNU-16 cell (Homo sapiens, Table 2), above 5000 nM.

`CCN1CCN(c2ccc(C(=O)Nc3n[nH]c4cc(-c5cccc(C(=O)OC)c5)ccc34)cc2)CC1` [9h, methyl 3–(3-(4–(4-ethylpiperazin-1-yl)benzamido)-1H-indazol-6-yl)benzoate] returned a melting point of 228.7 to 233.4 °C. The compound also displayed an IC50 against FGFR1 of 77.7 nM. Moreover, in the series on SNU-16 cell (Homo sapiens, Table 2), inhibition was half-maximal at 757 nM (IC50).

The compound `CCN1CCN(c2ccc(C(=O)Nc3n[nH]c4cc(-c5ccc(C)c(OC)c5)ccc34)cc2)CC1` [9i, 4–(4-ethylpiperazin-1-yl)-N-(6–(3-methoxy-4-methylphenyl)-1H-indazol-3-yl) benzamide] gave a melting point of 227.3 to 231.2 °C. This compound registered a 50% inhibitory concentration (IC50) at FGFR1 above 1000 nM. In the series on SNU-16 cell (Homo sapiens, Table 2), this compound had an IC50 above 5000 nM.

For the compound `CCN1CCN(c2ccc(C(=O)Nc3n[nH]c4cc(-c5cc(C(F)(F)F)cc(C(F)(F)F)c5)ccc34)cc2)CC1` [9j, N-(6–(3,5-bis(trifluoromethyl)phenyl)-1H-indazol-3-yl)-4–(4-ethylpiperazin-1-yl)benzamide], the IC50 was above 1000 nM against FGFR1 and above 5000 nM in the series with SNU-16 cell (Homo sapiens, Table 2).

Consider `CCN1CCN(c2ccc(C(=O)Nc3n[nH]c4cc(-c5cc(Cl)cc(Cl)c5)ccc34)cc2)CC1` [9k, N-(6–(3,5-dichlorophenyl)-1H-indazol-3-yl)-4–(4-ethylpiperazin-1-yl)benzamide], for which the melting point fell in the range of 226.4 to 228.7 °C. Further, the IC50 against FGFR1 is 67.2 nM. Besides, the IC50 in the series with SNU-16 cell (Homo sapiens, Table 2) stood at 1200 nM.

`CCN1CCN(c2ccc(C(=O)Nc3n[nH]c4cc(-c5cc(Cl)ccc5Cl)ccc34)cc2)CC1` [9l, N-(6–(2,5-dichlorophenyl)-1H-indazol-3-yl)-4–(4-ethylpiperazin-1-yl)benzamide] displayed a melting point of 231.5 to 234.6 °C. On FGFR1, this compound showed a half-inhibitory concentration (IC50) of 50.6 nM. The same compound showed an IC50 with SNU-16 cell (Homo sapiens, Table 2) of 780 nM.

The compound `CCN1CCN(c2ccc(C(=O)Nc3n[nH]c4cc(-c5cccc(Cl)c5Cl)ccc34)cc2)CC1` [9m, N-(6–(2,3-dichlorophenyl)-1H-indazol-3-yl)-4–(4-ethylpiperazin-1-yl)benzamide] had a melting point of 220.1 to 222.4 °C. Also, at FGFR1, the concentration for half-maximal inhibition (IC50) came out at 44.8 nM. Also, the concentration for half-maximal inhibition (IC50) with SNU-16 cell (Homo sapiens, Table 2) is 1180 nM.

`CCN1CCN(c2ccc(C(=O)Nc3n[nH]c4cc(-c5ccc(Cl)c(Cl)c5)ccc34)cc2)CC1` [9n, N-(6–(3,4-dichlorophenyl)-1H-indazol-3-yl)-4–(4-ethylpiperazin-1-yl)benzamide] came in with a melting point of 224.9 to 228 °C. At FGFR1, this compound displayed a half-maximal inhibitory concentration (IC50) above 1000 nM. In the series on SNU-16 cell (Homo sapiens, Table 2), the half-maximal inhibitory concentration (IC50) is above 5000 nM.

For the compound `CCN1CCN(c2ccc(C(=O)Nc3n[nH]c4cc(-c5cc(F)cc(OC)c5)ccc34)cc2)CC1` [9o, 4–(4-ethylpiperazin-1-yl)-N-(6–(3-fluoro-5-methoxyphenyl)-1H-indazol-3-yl)benzamide], the melting point lay within 225.5 to 227 °C. Further, inhibition against FGFR1 was half-maximal at 5.5 nM (IC50). Further, the “enhancement of the cellular inhibition” value in the series on SNU-16 cell (9o vs 9d, SNU-16) stood at 1.4 fold. The concentration for half-maximal inhibition (IC50) in the series on SNU-16 cell (Homo sapiens, Table 2) was found to be 572 nM.

`CCN1CCN(c2ccc(C(=O)Nc3n[nH]c4cc(-c5ccc(C(F)(F)F)cc5Cl)ccc34)cc2)CC1` [9p, N-(6–(2-chloro-4-(trifluoromethyl)phenyl)-1H-indazol-3-yl)-4–(4-ethylpiperazin-1-yl)benzamide] had a melting point of 227.9 to 232 °C. The IC50 at FGFR1 was above 1000 nM. Besides, in the series with SNU-16 cell (Homo sapiens, Table 2), the IC50 was above 5000 nM.

Regarding `CCN1CCN(c2ccc(C(=O)Nc3n[nH]c4cc(-c5c(C)cccc5C)ccc34)cc2)CC1` [9q, N-(6–(2,6-dimethylphenyl)-1H-indazol-3-yl)-4–(4-ethylpiperazin-1-yl)benzamide], the melting point lay within 235.7 to 239.2 °C. Besides, the IC50 against FGFR1 was found to be 41.7 nM. In the series with SNU-16 cell (Homo sapiens, Table 2), this compound registered a concentration for half-maximal inhibition (IC50) of 856 nM.

On to `CCN1CCN(c2ccc(C(=O)Nc3n[nH]c4cc(-c5ccccc5OC(F)(F)F)ccc34)cc2)CC1` [9r, 4–(4-ethylpiperazin-1-yl)-N-(6–(2-(trifluoromethoxy)phenyl)-1H-indazol-3-yl)benzamide], for which the melting point was in the range of 230.9 to 233.5 °C. The IC50 at FGFR1 was above 1000 nM. This compound registered a half-maximal inhibitory concentration (IC50) with SNU-16 cell (Homo sapiens, Table 2) above 5000 nM.

On to `CCN1CCN(c2ccc(C(=O)Nc3n[nH]c4cc(-c5ccc(C#N)cc5)ccc34)cc2)CC1` [9s, N-(6–(4-cyanophenyl)-1H-indazol-3-yl)-4–(4-ethylpiperazin-1-yl)benzamide], for which the melting point fell in the range of 226.4 to 230 °C. On FGFR1, this compound registered a half-maximal inhibitory concentration (IC50) above 1000 nM. Besides, the half-inhibitory concentration (IC50) with SNU-16 cell (Homo sapiens, Table 2) is above 5000 nM.

With `CCN1CCN(c2ccc(C(=O)Nc3n[nH]c4cc(-c5ccn(C)n5)ccc34)cc2)CC1` [9t, 4–(4-ethylpiperazin-1-yl)-N-(6–(1-methyl-1H-pyrazol-3-yl)-1H-indazol-3-yl) benzamide], the melting point is 221.6 to 224.2 °C. This compound had a concentration for half-maximal inhibition (IC50) against FGFR1 above 1000 nM. Further, the half-maximal inhibitory concentration (IC50) in the series with SNU-16 cell (Homo sapiens, Table 2) was above 5000 nM.

In turn, `COc1cc(F)cc(-c2ccc3c(NC(=O)c4ccc(N5C[C@@H](C)N[C@@H](C)C5)cc4)n[nH]c3c2)c1` [9v, 4-((3R,5S)-3,5-dimethylpiperazin-1-yl)-N-(6–(3-fluoro-5-methoxyphenyl)-1H-indazol-3-yl)benzamide] showed a melting point of 229.6 to 233.4 °C. Also, at FGFR1, the IC50 was 13.2 nM. Besides, in the series with SNU-16 cell (Homo sapiens, Table 3), half-maximal inhibition (IC50) was put at 437 nM.

Consider AZD4547 [reference compound], for which the IC50 in the series on SNU-16 cell (Table 1) came to 6.1 nM.

Regarding “N-(5–(3-methoxyphenethyl)-1H-1,2,4-triazol-3-yl)-4–(4-methylpiperazin-1-yl) benzamide [18b]”, the figures for the IC50 on FGFR1 and in the series with SNU-16 cell (Table 1) were above 1000 nM and above 5000 nM, respectively.

The record behind these values is PMC6844396, “Design, synthesis and biological evaluation of novel 1H-1,2,4-triazole, benzothiazole and indazole-based derivatives as potent FGFR1 inhibitors viafragment-based virtual screening” (Journal of Enzyme Inhibition and Medicinal Chemistry, 2019).
